Source: ChEMBL document CHEMBL4765237, “Structural optimization and structure-activity relationship studies of N-phenyl-7,8-dihydro-6H-pyrimido[5,4-b][1,4]oxazin-4-amine derivatives as a new class of inhibitors of RET and its drug resistance mutants” (Eur J Med Chem, 2018)
Activity calls are given as the source filed them. The calls are words filed in the database; no cut-off is given here.

What was measured:
Mus musculus = species on record: Mus musculus; conditions: NOD-SCID, dose 30.0 mg/kg, time 18.0 day
[1] = biological target: Tyrosine-protein kinase Lyn (Homo sapiens, UniProt P07948); test: Inhibition of recombinant human Lyn using poly(Glu, Tyr) 4:1 as substrate after 40 mins in presence of [gamma-33ATP] by scintillation counting based radiometry assay
[2] = biological target: BDNF/NT-3 growth factors receptor (Homo sapiens, UniProt Q16620); test: Inhibition of recombinant human TRKB (455 to end residues) using poly(Glu, Tyr) 4:1 as substrate incubated for 40 mins in presence of [gamma33P]ATP by scintillation counting based radiometry assay
[3] = Toxicity in NOD-SCID mouse xenografted with […] cells harboring RET C634Y mutant assessed as reduction in body weight at 10 to 30 mg/kg, po administered for 18 days and measured on day 18; assay type: organism-based; conditions: in vivo, 432 h, dose 10-30 mg/kg, time 18 day
[4] = biological target: Macrophage-stimulating protein receptor (Homo sapiens, UniProt Q04912); test: Inhibition of recombinant human Ron (983 to end residues) using GGMEDIYFEFMGGKKK as substrate incubated for 40 mins in presence of [gamma33P]ATP by scintillation counting based radiometry assay
BaF3 [5] = assay type: functional; conditions: Mus musculus, BaF3, 72 h; time 3 day
[6] = Half life in Sprague-Dawley rat at 10 mg/kg, po measured upto 24 hrs by LC-MS/MS analysis; assay type: ADME, organism-based; conditions: in vivo
[7] = biological target: Mitogen-activated protein kinase 13 (Homo sapiens, UniProt O15264); test: Inhibition of recombinant human full length SAPK4 using myelin basic protein as substrate incubated for 40 mins in presence of [gamma33P]ATP by scintillation counting based radiometry assay
SK-MEL-1 = test: Growth inhibition of human SK-MEL-1 cells incubated for 3 days by MTT assay; assay type: functional; conditions: SK-MEL-1, 72 h, time 3 day
[8] = biological target: Casein kinase I isoform delta (Homo sapiens, UniProt P48730); test: Inhibition of recombinant human CK1delta (1 to 294 residues) using KRRRALS(p)VASLPGL as substrate incubated for 40 mins in presence of [gamma-33ATP] by scintillation counting based radiometry assay
HeLa = test: Growth inhibition of human HeLa cells incubated for 3 days by MTT assay; assay type: functional; conditions: 72 h, time 3 day
BaF3 [9] = test: Growth inhibition of mouse BaF3 cells incubated for 3 days by MTT assay; assay type: functional; conditions: BaF3, 72 h, time 3 day
BHT-101 = test: Growth inhibition of human BHT-101 cells incubated for 3 days by MTT assay; assay type: functional; conditions: BHT-101, 72 h, time 3 day
NIH3T3 = conditions: Homo sapiens, dose 10-30 mg/kg, time 18.0 day
BaF3 [10] = test: Growth inhibition of mouse BaF3 cells harboring RET V804M mutant incubated for 3 days by MTT assay; assay type: functional; conditions: BaF3, 72 h, time 3 day
[11] = Growth inhibition of human TT cells incubated for 10 days by MTT assay; assay type: functional; conditions: 240 h, time 10 day
[12] = biological target: Vascular endothelial growth factor receptor 1 (Homo sapiens, UniProt P17948)
Ephrin type-A receptor 2 = Ephrin type-A receptor 2 (Homo sapiens, UniProt P29317); test: Inhibition of recombinant human EphA2 (596 to 900 residues) using poly(Glu, Tyr) 4:1 as substrate incubated for 40 mins in presence of [gamma-33ATP] by scintillation counting based radiometry assay
[13] = biological target: Mast/stem cell growth factor receptor Kit (Homo sapiens, UniProt P10721); test: Inhibition of recombinant human C-Kit using poly(Glu, Tyr) 4:1 as substrate incubated for 40 mins in presence of [gamma-33ATP] by scintillation counting based radiometry assay
[14] = Cmax in Sprague-Dawley rat at 10 mg/kg, po measured upto 24 hrs by LC-MS/MS analysis; assay type: ADME, organism-based; parameters: route oral, dose 10 mg/kg, time <=24; conditions: in vivo
[15] = Growth inhibition of human C643 cells incubated for 3 days by MTT assay; assay type: functional; conditions: C643, 72 h, time 3 day
[16] = Growth inhibition of mouse L929 cells incubated for 3 days by MTT assay; assay type: cell-based; conditions: time 3 day

Chain of Macrophage-stimulating protein receptor (Q04912 25-304 limits assumed): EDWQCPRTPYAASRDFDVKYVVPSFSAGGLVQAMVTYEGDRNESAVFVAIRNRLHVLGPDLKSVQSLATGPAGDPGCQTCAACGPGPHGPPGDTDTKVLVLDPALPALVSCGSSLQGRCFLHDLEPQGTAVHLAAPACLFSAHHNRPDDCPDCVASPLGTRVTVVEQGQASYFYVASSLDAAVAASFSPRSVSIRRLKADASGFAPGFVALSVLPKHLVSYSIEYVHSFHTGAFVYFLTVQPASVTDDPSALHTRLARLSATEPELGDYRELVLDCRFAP
Chain of Macrophage-stimulating protein receptor (Q04912 310-1400 limits assumed): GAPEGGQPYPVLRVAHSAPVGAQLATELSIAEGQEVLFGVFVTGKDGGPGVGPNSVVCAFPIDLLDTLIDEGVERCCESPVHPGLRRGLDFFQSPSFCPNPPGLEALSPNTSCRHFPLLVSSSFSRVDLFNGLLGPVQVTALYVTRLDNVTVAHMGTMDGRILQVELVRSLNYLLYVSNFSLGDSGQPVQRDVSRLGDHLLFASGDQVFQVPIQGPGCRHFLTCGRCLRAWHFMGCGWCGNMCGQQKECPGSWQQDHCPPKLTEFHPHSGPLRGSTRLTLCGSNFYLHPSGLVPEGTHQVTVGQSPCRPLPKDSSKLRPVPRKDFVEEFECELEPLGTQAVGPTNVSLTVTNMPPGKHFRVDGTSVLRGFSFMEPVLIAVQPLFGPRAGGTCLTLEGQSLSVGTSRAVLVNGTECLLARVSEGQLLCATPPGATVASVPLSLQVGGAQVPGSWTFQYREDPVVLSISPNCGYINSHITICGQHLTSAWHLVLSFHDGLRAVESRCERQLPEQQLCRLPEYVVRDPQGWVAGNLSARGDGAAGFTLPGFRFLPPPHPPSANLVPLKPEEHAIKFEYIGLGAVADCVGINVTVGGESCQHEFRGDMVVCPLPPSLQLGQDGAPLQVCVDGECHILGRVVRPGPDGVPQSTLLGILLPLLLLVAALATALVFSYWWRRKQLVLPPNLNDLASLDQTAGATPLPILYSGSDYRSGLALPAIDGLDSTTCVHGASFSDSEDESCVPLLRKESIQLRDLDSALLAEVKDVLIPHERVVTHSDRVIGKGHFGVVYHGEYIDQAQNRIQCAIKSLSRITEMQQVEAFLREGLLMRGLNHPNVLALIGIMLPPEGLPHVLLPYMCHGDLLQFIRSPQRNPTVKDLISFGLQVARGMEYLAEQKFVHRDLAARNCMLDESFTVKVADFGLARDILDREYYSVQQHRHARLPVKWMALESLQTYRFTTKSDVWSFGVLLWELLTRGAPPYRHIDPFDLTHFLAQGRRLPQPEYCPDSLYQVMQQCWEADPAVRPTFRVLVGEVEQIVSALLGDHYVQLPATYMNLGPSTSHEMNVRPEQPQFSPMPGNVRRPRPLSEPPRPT
Chain of Casein kinase I isoform delta (P48730 whole entry, the tested form may be a part, canonical isoform): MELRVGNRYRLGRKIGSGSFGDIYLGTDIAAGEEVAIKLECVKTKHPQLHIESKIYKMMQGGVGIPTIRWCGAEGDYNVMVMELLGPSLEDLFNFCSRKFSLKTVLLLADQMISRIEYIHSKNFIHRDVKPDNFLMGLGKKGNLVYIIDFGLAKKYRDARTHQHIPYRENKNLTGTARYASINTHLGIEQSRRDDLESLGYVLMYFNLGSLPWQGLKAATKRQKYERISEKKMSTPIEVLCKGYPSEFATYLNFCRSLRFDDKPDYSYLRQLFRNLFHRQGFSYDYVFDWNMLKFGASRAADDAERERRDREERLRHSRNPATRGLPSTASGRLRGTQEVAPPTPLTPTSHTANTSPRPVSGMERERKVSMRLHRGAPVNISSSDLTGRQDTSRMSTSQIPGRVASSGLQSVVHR
Chain of Mitogen-activated protein kinase 13 (O15264 whole entry): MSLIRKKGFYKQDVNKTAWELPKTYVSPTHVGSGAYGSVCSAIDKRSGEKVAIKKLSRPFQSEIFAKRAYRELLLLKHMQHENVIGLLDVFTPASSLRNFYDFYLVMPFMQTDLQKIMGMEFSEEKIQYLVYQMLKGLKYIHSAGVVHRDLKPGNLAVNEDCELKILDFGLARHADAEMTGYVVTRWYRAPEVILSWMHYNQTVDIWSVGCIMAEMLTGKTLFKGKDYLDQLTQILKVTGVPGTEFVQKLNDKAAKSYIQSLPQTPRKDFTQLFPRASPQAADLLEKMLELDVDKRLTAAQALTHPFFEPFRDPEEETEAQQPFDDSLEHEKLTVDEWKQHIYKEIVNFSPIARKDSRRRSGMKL
Chain of Tyrosine-protein kinase Lyn (P07948 whole entry): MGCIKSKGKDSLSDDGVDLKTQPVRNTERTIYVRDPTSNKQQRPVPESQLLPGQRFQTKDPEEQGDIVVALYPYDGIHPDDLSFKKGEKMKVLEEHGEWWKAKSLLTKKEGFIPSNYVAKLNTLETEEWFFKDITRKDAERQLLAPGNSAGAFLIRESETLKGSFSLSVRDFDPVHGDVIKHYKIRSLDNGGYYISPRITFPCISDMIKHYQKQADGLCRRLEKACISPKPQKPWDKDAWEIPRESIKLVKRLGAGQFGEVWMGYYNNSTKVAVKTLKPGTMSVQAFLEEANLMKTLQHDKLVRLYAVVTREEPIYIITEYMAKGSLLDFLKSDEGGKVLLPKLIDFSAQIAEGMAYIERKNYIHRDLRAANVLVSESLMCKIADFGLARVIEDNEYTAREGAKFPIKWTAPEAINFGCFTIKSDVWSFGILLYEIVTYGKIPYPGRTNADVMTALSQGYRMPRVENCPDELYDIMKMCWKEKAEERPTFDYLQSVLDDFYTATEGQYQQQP
Chain of BDNF/NT-3 growth factors receptor (Q16620 whole entry): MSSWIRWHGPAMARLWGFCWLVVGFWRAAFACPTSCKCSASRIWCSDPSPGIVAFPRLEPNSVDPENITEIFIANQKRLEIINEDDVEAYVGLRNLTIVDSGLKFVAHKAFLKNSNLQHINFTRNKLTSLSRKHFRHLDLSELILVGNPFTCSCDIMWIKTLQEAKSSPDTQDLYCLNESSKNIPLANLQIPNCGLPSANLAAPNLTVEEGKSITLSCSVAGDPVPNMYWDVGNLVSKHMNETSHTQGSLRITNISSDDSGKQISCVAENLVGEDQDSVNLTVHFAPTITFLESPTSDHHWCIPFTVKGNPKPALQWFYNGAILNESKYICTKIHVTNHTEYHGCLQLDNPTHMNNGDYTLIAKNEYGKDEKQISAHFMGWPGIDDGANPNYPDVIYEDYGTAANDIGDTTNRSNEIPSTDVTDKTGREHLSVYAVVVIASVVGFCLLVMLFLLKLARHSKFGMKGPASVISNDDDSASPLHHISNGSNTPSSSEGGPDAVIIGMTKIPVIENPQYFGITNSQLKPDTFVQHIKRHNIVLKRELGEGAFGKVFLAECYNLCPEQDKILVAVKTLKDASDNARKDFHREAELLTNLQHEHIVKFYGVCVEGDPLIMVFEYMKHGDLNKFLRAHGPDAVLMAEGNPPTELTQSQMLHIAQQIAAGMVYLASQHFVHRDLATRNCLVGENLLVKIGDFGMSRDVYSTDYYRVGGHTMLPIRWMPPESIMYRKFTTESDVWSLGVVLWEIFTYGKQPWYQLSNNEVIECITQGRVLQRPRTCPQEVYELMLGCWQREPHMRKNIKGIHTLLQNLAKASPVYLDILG
Chain of Vascular endothelial growth factor receptor 1 (P17948 whole entry, the tested form may be a part): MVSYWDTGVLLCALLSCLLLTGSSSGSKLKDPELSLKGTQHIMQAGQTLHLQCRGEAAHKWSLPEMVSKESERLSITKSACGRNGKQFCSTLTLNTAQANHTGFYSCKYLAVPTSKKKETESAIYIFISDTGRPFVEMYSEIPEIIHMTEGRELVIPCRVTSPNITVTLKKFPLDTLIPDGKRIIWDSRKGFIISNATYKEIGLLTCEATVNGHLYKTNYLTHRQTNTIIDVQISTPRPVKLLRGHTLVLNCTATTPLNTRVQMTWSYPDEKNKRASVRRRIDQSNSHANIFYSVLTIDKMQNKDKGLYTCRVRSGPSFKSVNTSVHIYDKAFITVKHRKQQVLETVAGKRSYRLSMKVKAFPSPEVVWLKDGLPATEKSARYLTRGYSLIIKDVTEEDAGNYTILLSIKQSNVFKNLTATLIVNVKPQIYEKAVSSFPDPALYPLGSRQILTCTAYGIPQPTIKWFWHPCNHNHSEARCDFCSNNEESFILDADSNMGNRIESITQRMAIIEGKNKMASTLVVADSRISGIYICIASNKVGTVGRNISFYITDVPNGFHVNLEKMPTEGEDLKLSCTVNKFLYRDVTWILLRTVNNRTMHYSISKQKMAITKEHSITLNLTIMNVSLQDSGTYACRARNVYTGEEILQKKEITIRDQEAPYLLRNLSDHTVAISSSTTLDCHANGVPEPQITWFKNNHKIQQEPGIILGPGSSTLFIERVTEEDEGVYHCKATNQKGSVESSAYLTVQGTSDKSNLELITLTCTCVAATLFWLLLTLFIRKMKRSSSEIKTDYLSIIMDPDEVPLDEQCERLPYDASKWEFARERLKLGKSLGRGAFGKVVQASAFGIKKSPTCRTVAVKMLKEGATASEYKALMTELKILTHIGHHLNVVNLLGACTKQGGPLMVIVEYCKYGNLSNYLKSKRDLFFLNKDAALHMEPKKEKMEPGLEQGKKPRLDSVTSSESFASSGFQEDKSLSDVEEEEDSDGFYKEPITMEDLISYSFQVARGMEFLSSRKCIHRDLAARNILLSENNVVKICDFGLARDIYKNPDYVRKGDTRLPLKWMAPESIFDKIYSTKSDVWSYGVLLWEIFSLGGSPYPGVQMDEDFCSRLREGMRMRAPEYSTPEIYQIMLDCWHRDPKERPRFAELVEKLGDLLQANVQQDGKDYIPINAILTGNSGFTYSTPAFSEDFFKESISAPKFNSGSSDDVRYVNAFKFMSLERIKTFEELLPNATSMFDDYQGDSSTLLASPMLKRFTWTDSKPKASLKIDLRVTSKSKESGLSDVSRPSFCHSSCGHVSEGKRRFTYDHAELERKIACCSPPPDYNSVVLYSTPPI

SMILES: CC(C)(C)c1cc(NC(=O)Nc2ccc(Nc3ncnc4c3OCCCN4)cc2)no1
- inhibition (Mus musculus): Active
- IC50 [1]: 122 nM
- IC50 [2]: 68 nM
- Activity [3]: Non-Toxic
- IC50 [4]: 1260 nM
- GI50 (BaF3 [5]): 1130 nM
- half-life [6]: 1.54 h
- IC50 [7]: 214 nM
- GI50 (SK-MEL-1): > 10000 nM
- IC50 [8]: 509 nM
- GI50 (HeLa): > 10000 nM
- GI50 (BaF3 [9]): > 10000 nM
- GI50 (BHT-101): > 10000 nM
- TGI (NIH3T3): Dose-dependent effect
- GI50 (BaF3 [10]): 930 nM
- GI50 [11]: 65 nM
- IC50 [12]: 8 nM
- IC50 (Ephrin type-A receptor 2): 104 nM
- IC50 [13]: 218 nM
- Cmax [14]: 263 µg/mL
- GI50 [15]: > 10000 nM
- GI50 at 72 h [16]: > 10000 nM
